# In patent US20240226211A9, “SEAWEED EXTRACTS, ISOLATED COMPOUNDS, AND METHODS OF TREATMENT” (University of Florida Research Foundation, Incorporated, priority 2017, published 2024):
# Tested on: NQO1
# Experiment: Immunoblot of NQO1 after NAC pre-treatment in IMR-32 cells
# Format: cell-based, human
# Settings: pre-treated with N-acetylcysteine
# Experimental: IMR-32 cells were seeded into 6-well plates (7×10^5 cells/well) and incubated at 37° C. for 24 h. The cells were then treated with a solvent control (DMSO, 1%, v/v), isolated compounds, or extracts. After 24 h, cells were lysed in 200 μL of PhosphoSafe buffer (Novagen). Protein concentrations were measured by using a BCA assay kit (Pierce). Equal amounts of total protein were separated using SDS-PAGE (NuPAGE® Novex® 4-12% Bis-Tris Mini gels, Invitrogen) and transferred onto a PVDF membrane. Membranes were blocked overnight with 5% BSA at 4° C. and incubated with indicated primary antibodies for 2 h at room temperature. After washing, the membranes were then incubated with the corresponding secondary antibodies (HRP-linked) for 1 h at room temperature and detected with Supersignal Femto Western Blotting kit (Pierce). For assays in the presence of N-acetylcysteine (NAC), the cells were pretreated with the antioxidant (NAC at 1 mM) for 2 h prior to treatment with the solvent control, isolated compounds, or extracts.
smiles,measurement,value
"CC(C)=CCC/C(C)=C/Cc1cc(O)c(Br)cc1O [Compound 1, (E)-2-bromo-5-(3,7-dimethylocta-2,6-dien-1-yl)benzene-1,4-diol]",translation of NQO1 after NAC pre-treatment,still able to induce the translation of NQO1
